Results reported in patent US8569242B2, “Method of treating degenerative disorders of the nervous system” (The Regents of the University of California, priority 2005, dated 2013).
Values joined by “and” are separate entries in the source; they are usually repeats but may differ in a detail not shown here. Equal entries are not always repeated.

What was measured:
[1] = system: RhoA; assay: RhoA activation (GST-Rhotekin pull-down, immunoblot) in microglia; assay type: cell-based, mouse; details: fibrinogen 6 hours, LPS 10 minutes; densitometry
Procedure: (§1) Immunoblots. Western blots were performed using standard protocols (55). Microglia were serum-starved overnight and plated on fibrinogen or with LPS for 6 hours. Lysates were electrophoresed on 4-12% gradient SDS-PAGE gels and probed with phospho and total Akt antibodies (1:1000, Cell Signaling, Beverly, Mass.). RhoA activation was performed as described (60). Briefly, 2×107 microglia were plated on fibrinogen for 6 hours or with LPS for 10 minutes. Cell lysates were incubated with GST-Rhotekin agarose beads (kindly provided by Dr. Joan Heller Brown, UCSD) for 45 minutes at 4° C. The beads were washed, resuspended in Laemmli sample buffer, and electophoresed on a 15% SDS-PAGE gel. Activated and total Rho were detected with mouse anti-RhoA (1:500, Santa Cruz Biotechnology, Santa Cruz, Calif.). Densitometry was performed using the NIH Scion Image software using three blots from three separate experiments.

[2] = system: primary microglia; assay: Morphometry of microglia activation (Isolectin B4 staining, cell size); assay type: cell-based, mouse
Procedure: Culture of primary microglia cells. Microglia were isolated from cultures of mixed cortical cells as described (59). In brief, cortices from P1 mice were isolated and digested with trypsin (0.4%) for 20 minutes at 37° C. Cells from 4 pups were plated onto PDL-coated 75 cm2 tissue-culture flasks. The culture medium (DMEM, 10% heat-inactivated FBS, and 1% Pen/Strep) was changed on day 2. After 2-3 weeks in culture, the microglia were removed by the addition of 12 mM lidocaine (Sigma-Aldrich, St. Louis, Mo.) and orbital shaking (180 rpm) for 20 minutes at 37° C. The cells were centrifuged (350×G) and the pellet was resuspended in complete medium and plated onto PDL-coated tissue culture dishes. Microglia cell cultures were >95% pure as determined with three different markers, IsoB4, IBA-1 and CD11b. To immobilize fibrinogen, tissue culture dishes were incubated overnight with 50 μg/mL fibrinogen (Calbiochem, San Diego, Calif.) in 20 mM Tris (pH 7.5) and 0.1 M NaCl at 37° C. for all fibrinogen treatments. To serve as positive controls, LPS (Sigma-Aldrich, St. Louis, Mo.) was added to the media at 1 μg/mL.
Morphometry. Primary microglia were used for all morphologic analysis. Cells were plated on coated fibrinogen or in the presence of LPS for 72 hours. Microglia were fixed with methanol and immunostained with Isolectin B4 (1:300, Sigma-Aldrich, St. Louis, Mo.). Activated microglia were quantificated as those cells larger than 2,000 μm^2. Blocking experiments involved the daily administration of rat anti-CD11b (10 μg/mL, eBioscience, San Diego, Calif.), γ^377-395 peptide (200 μM) or rat IgG (10 μg/mL, Jackson ImmunoResearch Laboratories, West Grove, Pa.). Results were obtained from six separate experiments performed in duplicates. 250 cells per condition were counted for each individual experiment. Statistical calculations were made by using Student's t test.

[3] = system: Akt; assay: Akt phosphorylation immunoblot in microglia; assay type: cell-based, mouse; details: fibrinogen or LPS 6 hours; densitometry
Procedure: as §1

[4] = system: primary murine microglia and a murine microglia cell line (BV2); assay: Vybrant phagocytosis assay in microglia; assay type: cell-based, mouse; details: fluorescent E. coli; stimulation with immobilized fibrinogen or LPS
Procedure: Phagocytosis assay. Phagocytosis assays were performed on both primary murine microglia and a murine microglia cell line (BV2). BV2 cells are an established cell line used to study microglia responses (46). BV2 cells were routinely passaged in DMEM, 20% heat inactivated FBS, and 1% Pen/Strep. Microglia phagocytosis was assessed using the Vybrant phagocytosis assay kit (Molecular Probes, Eugene, Oreg.) according to the manufacturer's recommendations. Microglia were cultured in 96-well plates at 5,000 cells/well for 36 hours at 37° C. Blocking experiments included the addition of LY294002 (1 μM, Cell Signaling, Beverly, Mass.), rat anti-CD11b ([…], eBioscience, San Diego, Calif.), rat anti-TLR4 (10 μg/mL, eBioscience, San Diego, Calif.) or rat IgG (10 μg/mL, Jackson ImmunoResearch Laboratories, West Grove, Pa.) to the media. Results were obtained from four separate experiments performed in triplicates. Statistical calculations were made by using Student's t-test.

[5] = target: T1, fibrin (Mus musculus, UniProt E9PV24+Q8K0E8+Q8VCM7); assay: In vitro fibrin polymerization turbidity assay in plasma; assay type: biochemical; details: citrate plasma, bovine thrombin 0.2 U/ml, OD350
T1 construct: from tissue; host or cells: citrated mouse plasma, diluted tenfold
T1 sequence (Q8VCM7 26-436): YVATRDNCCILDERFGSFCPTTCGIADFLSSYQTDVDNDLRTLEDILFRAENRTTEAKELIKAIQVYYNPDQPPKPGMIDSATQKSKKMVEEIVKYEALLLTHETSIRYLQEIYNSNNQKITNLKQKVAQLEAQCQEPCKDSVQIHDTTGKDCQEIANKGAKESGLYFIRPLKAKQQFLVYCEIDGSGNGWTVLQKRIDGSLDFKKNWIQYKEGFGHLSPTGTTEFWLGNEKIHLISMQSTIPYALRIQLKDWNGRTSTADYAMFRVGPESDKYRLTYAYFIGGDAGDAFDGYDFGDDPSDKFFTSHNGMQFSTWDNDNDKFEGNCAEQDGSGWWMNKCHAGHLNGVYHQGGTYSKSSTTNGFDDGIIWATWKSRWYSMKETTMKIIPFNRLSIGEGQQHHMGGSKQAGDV
T1 sequence (E9PV24 37-789 limits assumed): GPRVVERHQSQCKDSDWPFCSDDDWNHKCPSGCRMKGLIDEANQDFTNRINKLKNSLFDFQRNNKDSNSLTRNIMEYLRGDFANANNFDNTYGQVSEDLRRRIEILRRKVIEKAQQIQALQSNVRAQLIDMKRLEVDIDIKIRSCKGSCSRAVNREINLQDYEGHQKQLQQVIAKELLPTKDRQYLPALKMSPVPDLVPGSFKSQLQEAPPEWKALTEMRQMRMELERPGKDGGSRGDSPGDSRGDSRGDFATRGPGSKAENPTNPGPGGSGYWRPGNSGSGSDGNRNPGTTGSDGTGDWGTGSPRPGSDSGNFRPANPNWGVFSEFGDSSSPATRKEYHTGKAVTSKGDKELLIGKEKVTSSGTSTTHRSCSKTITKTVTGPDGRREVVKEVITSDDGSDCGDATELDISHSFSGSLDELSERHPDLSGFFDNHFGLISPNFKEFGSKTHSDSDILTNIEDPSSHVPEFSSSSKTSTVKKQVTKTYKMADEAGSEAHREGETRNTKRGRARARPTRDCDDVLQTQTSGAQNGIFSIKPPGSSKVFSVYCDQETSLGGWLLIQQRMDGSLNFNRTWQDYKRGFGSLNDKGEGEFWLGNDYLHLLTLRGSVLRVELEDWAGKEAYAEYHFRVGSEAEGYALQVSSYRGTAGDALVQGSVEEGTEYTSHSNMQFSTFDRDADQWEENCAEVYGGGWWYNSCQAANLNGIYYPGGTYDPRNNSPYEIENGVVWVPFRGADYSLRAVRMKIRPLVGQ
T1 sequence (Q8K0E8 35-481 limits assumed): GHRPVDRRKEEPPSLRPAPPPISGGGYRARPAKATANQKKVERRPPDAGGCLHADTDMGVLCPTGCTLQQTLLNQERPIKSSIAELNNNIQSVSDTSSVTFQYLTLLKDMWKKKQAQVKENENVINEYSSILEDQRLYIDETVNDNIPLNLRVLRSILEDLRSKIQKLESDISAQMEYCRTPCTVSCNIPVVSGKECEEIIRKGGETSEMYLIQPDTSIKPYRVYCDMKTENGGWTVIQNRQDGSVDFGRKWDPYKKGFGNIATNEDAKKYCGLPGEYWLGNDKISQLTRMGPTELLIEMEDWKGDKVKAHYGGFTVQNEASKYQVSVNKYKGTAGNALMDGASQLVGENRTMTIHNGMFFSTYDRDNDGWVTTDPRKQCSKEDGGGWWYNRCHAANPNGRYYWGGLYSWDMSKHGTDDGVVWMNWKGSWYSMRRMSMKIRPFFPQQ
Procedure: Hematological Analyses. Citrated plasma was prepared from mice administered intranasally 30 μg or 90 μg of γ^377-395 peptide or saline control daily for seven days. Plasma clotting times were measured by combining 10 μl of citrated plasma with 10 μl of 2 U/ml bovine thrombin (Enzyme Research Laboratories, South Bend, Ind., USA) and 40 mM. CaCl2 in a weigh boatfloating in a 37° C. water bath. Time to clot was determined by mixing with a toothpick. Plasma thrombin times were established as described previously (15). Fibrin polymerization was evaluated by standard turbidity assays using plasma. Briefly, citrate plasma (diluted tenfold in 20 mM HEPES, pH 7.4, containing 0.15 M NaCl and 5 mM-amino caproic acid) was combined with bovine thrombin (final concentration 0.2 U/ml; Enzyme Research Laboratories, South Bend, Ind., USA), and Ca^2+ (10 mM), and OD350 measurements were taken every 30 seconds.

## Fibrinogen
[1]
  increase of active RhoA: 1.9 fold
[2]; soluble, not immobilized, fibrinogen, data not shown
  changes in microglia morphology: did not induce changes in microglia morphology
[2]; stimulation with immobilized fibrinogen alone, 72 hours, activated = cells larger than 2,000 μm^2
  % of activated microglia: 85.5±1.4% and 71±4.9%
[3]
  increase in Akt phosphorylation: 24 fold
[4]
  increase in phagocytosis as compared to untreated controls: 65.3%

## GPRP [GPRP peptide, reference compound]
[5]
  effect on fibrin polymerization: inhibits
[5]; listed as GPRP
  effect on fibrin polymerization: significantly attenuated

## Lipopolysaccharide [LPS, reference compound]
[1]
  increase of active RhoA: 2.4 fold
[3]
  increase in Akt phosphorylation: 34 fold
[4]
  increase in phagocytosis as compared to untreated controls: 39.1%
